Among the data in ChEMBL document CHEMBL2346539, “Effects of geraniin on osteoclastic bone resorption and matrix metalloproteinase-9 expression” (2013) are Activity and inhibition values, retold here.

Experiment [1] in a line: Reduction of MMP9 protein expression in rat osteoclasts assessed as reduction in integral optical density by immunocytochemistry analysis. The class given is functional, cell-based. The conditions noted are these: Osteoclast.
Experiment [2] in a line: Reduction of MMP9 protein expression in rat osteoclasts assessed as reduction in mean optical density by immunocytochemistry analysis. To be noted: Osteoclast. The class given is functional, cell-based.
The nature of experiment [3]: Reduction of MMP9 mRNA expression in rat osteoclasts assessed as reduction in integral optical density at 10^-8 mol/L by in situ hybridization assay. The conditions noted are these: Osteoclast. Format: functional, cell-based.
Experiment [4] can be described thus: Reduction of MMP9 mRNA expression in rat osteoclasts assessed as reduction in mean optical density at 10^-8 mol/L by in situ hybridization assay. The class given is functional, cell-based. The conditions noted are these: Osteoclast.
The test system of experiment [5] is Osteoclast. The experiment in a line: Inhibition of rat osteoclasts-induced resorption in bovine bone co-cultured for 72 hrs using toluidine blue staining by SEM analysis. The class given is functional, cell-based.
Experiment [6] deals with Osteoclast. The experiment in a line: Reduction in number of resorption pits in rat osteoclasts-stimulated bovine bone at 10^-8 mol/L co-cultured for 72 hrs using toluidine blue staining by SEM analysis. The class given is functional, cell-based.
Experiment [7] concerns Osteoclast. Put plainly: Inhibition of rat osteoclasts-induced resorption in bovine bone at 10^-8 mol/L co-cultured for 72 hrs using toluidine blue staining by SEM analysis. Format: functional, cell-based.
Experiment [8] has as its system Bone. The experiment in a line: Inhibition of osteoclastogenesis in Sprague-Dawley rat bone assessed as inhibition of fusion index at 10^-10 mol/L after 72 hrs by microscopy. The class given is functional. To be noted: Bone element.
Experiment [9] deals with Bone. Put plainly: Inhibition of osteoclastogenesis in Sprague-Dawley rat bone assessed as inhibition of fusion index at 10^-11 mol/L after 72 hrs by microscopy. The class given is functional. To be noted: Bone element.
Experiment [10] concerns Bone. The experiment in a line: Inhibition of osteoclastogenesis in Sprague-Dawley rat bone assessed as inhibition of fusion index at 10^-9 mol/L after 72 hrs by microscopy. The class given is functional. To be noted: Bone element.
For experiment [11], the system named is Bone. The experiment in a line: Reduction in number of pre-osteoclasts in Sprague-Dawley rat bone at 10^-8 mol/L after 72 hrs by microscopy. The class given is functional, tissue-based. The conditions noted are these: Bone element.
Experiment [12] relates to Bone. The experiment in a line: Inhibition of osteoclastogenesis in Sprague-Dawley rat bone assessed as inhibition of fusion index at 10^-8 mol/L after 72 hrs by microscopy. The class given is functional. To be noted: Bone element.
Experiment [13] deals with Bone. Put plainly: Inhibition of osteoclastogenesis in Sprague-Dawley rat bone assessed as decrease in TRAP-positive multi-nucleated cells at 10^-8 mol/L after 72 hrs by microscopy. Format: functional, tissue-based. The conditions noted are these: Bone element.
Experiment [14] relates to Bone. The experiment in a line: Inhibition of osteoclastogenesis in Sprague-Dawley rat bone assessed as decrease in TRAP-positive multi-nucleated cells after 72 hrs by microscopy. Format: functional, tissue-based. To be noted: Bone element.

The source made the active and inactive calls. The calls are words filed in the database; no cut-off is given here.

By inhibition is commonly meant the drop in the measured response relative to a control, in per cent. For `O=C1O[C@H]2[C@@H]3OC(=O)c4cc(O)c(O)c(O)c4-c4c(cc(O)c(O)c4O)C(=O)OC[C@H]2O[C@@H](OC(=O)c2cc(O)c(O)c(O)c2)[C@@H]3OC(=O)c2cc(O)c(O)c3c2[C@@H]2C1=CC(=O)[C@](O)(O3)C2(O)O` [GERANIIN], the Activity entry in experiment [1] and in [2] was “Dose-dependent effect” each time. Besides, the result (in experiment [3]; in [4]; with Osteoclast [6]; in the experiment with Bone [11]) was Active. Moreover, the inhibition entry with Osteoclast [5] and in the experiment with Bone [14] was “Dose-dependent effect” throughout. The inhibition result in the experiment with Osteoclast [7] and in the experiment on Bone [13] was “Active” in each case. In addition, the inhibition at 0.0001 µM in the experiment on Bone [8] is 9.31%. Further, in the experiment on Bone [9], the inhibition at 10 pM amounted to 3.05%. Also, the inhibition at 0.001 µM in the experiment with Bone [10] was found to be 24.2%. The inhibition at 0.01 µM in the experiment with Bone [12] stood at 46%.
